From the supplement of paper PMC13380429

Key:
Details in all cases: 72 h
HepG2 [1] = assay: cell viability relative to DMSO; higher = less toxic
Vero E6 [2] = assay: as above
Calu-3 [3] = assay: as above
Caco-2 [4] = assay: as above
U2OS [5] = assay: as above
HepG2 [6] = assay: drug sensitivity score (DSS) for viability; higher = more toxic; extreme values may be limits of the assay
Vero E6 [7] = assay: as above
Calu-3 [8] = assay: as above
Caco-2 [9] = assay: as above
U2OS [10] = assay: as above
HepG2 [11] = assay: relative viability EC50 (midpoint between 100% and the lowest measured viability); higher = less toxic
Vero E6 [12] = assay: as above
Calu-3 [13] = assay: as above
Caco-2 [14] = assay: as above
U2OS [15] = assay: as above

## CN1C(CCl)Nc2cc(Cl)c(S(N)(=O)=O)cc2S1(=O)=O (stereo not given) [methyclothiazide]
HepG2 [1]; 1 nM
  cell viability: 96.3%
HepG2 [1]; 10 nM
  cell viability: 96.1%
HepG2 [1]; 100 nM
  cell viability: 106%
HepG2 [1]; 1000 nM
  cell viability: 104%
HepG2 [1]; 10000 nM
  cell viability: 105%
Vero E6 [2]; 1 nM
  cell viability: 94.3%
Vero E6 [2]; 10 nM
  cell viability: 96.6%
Vero E6 [2]; 100 nM
  cell viability: 94.8%
Vero E6 [2]; 1000 nM
  cell viability: 99.4%
Vero E6 [2]; 10000 nM
  cell viability: 99.7%
Calu-3 [3]; 1 nM
  cell viability: 103%
Calu-3 [3]; 10 nM
  cell viability: 91.8%
Calu-3 [3]; 100 nM
  cell viability: 97.9%
Calu-3 [3]; 1000 nM
  cell viability: 105%
Calu-3 [3]; 10000 nM
  cell viability: 108%
Caco-2 [4]; 1 nM
  cell viability: 101%
Caco-2 [4]; 10 nM
  cell viability: 103%
Caco-2 [4]; 100 nM
  cell viability: 104%
Caco-2 [4]; 1000 nM
  cell viability: 103%
Caco-2 [4]; 10000 nM
  cell viability: 94.9%
U2OS [5]; 1 nM
  cell viability: 104%
U2OS [5]; 10 nM
  cell viability: 96.9%
U2OS [5]; 100 nM
  cell viability: 101%
U2OS [5]; 1000 nM
  cell viability: 98.4%
U2OS [5]; 10000 nM
  cell viability: 102%
HepG2 [6]
  drug sensitivity score: 0
Vero E6 [7]
  drug sensitivity score: 0
Calu-3 [8]
  drug sensitivity score: 0
Caco-2 [9]
  drug sensitivity score: 0
U2OS [10]
  drug sensitivity score: 0
HepG2 [11]
  relative viability EC50: > 10 µM
Vero E6 [12]
  relative viability EC50: > 10 µM
Calu-3 [13]
  relative viability EC50: > 10 µM
Caco-2 [14]
  relative viability EC50: > 10 µM
U2OS [15]
  relative viability EC50: > 10 µM

## O=C(O)Cc1cccc2c(=O)cc(-c3ccccc3)oc12 [mitoflaxone]
HepG2 [1]; 1 nM
  cell viability: 98.3%
HepG2 [1]; 10 nM
  cell viability: 92.3%
HepG2 [1]; 100 nM
  cell viability: 93.2%
HepG2 [1]; 1000 nM
  cell viability: 103%
HepG2 [1]; 10000 nM
  cell viability: 114%
Vero E6 [2]; 1 nM
  cell viability: 96.9%
Vero E6 [2]; 10 nM
  cell viability: 99.8%
Vero E6 [2]; 100 nM
  cell viability: 95.7%
Vero E6 [2]; 1000 nM
  cell viability: 94.9%
Vero E6 [2]; 10000 nM
  cell viability: 107%
Calu-3 [3]; 1 nM
  cell viability: 96%
Calu-3 [3]; 10 nM
  cell viability: 102%
Calu-3 [3]; 100 nM
  cell viability: 97%
Calu-3 [3]; 1000 nM
  cell viability: 95.8%
Calu-3 [3]; 10000 nM
  cell viability: 112%
Caco-2 [4]; 1 nM
  cell viability: 86%
Caco-2 [4]; 10 nM
  cell viability: 101%
Caco-2 [4]; 100 nM
  cell viability: 89.6%
Caco-2 [4]; 1000 nM
  cell viability: 104%
Caco-2 [4]; 10000 nM
  cell viability: 112%
U2OS [5]; 1 nM
  cell viability: 99.5%
U2OS [5]; 10 nM
  cell viability: 98%
U2OS [5]; 100 nM
  cell viability: 97.3%
U2OS [5]; 1000 nM
  cell viability: 102%
U2OS [5]; 10000 nM
  cell viability: 104%
HepG2 [6]
  drug sensitivity score: 0
Vero E6 [7]
  drug sensitivity score: 0
Calu-3 [8]
  drug sensitivity score: 0
Caco-2 [9]
  drug sensitivity score: 0
U2OS [10]
  drug sensitivity score: 0
HepG2 [11]
  relative viability EC50: > 10 µM
Vero E6 [12]
  relative viability EC50: > 10 µM
Calu-3 [13]
  relative viability EC50: > 10 µM
Caco-2 [14]
  relative viability EC50: > 10 µM
U2OS [15]
  relative viability EC50: > 10 µM

## NC/C(=C/F)CCc1ccc(F)cc1 [mofegiline]
HepG2 [1]; 1 nM
  cell viability: 98%
HepG2 [1]; 10 nM
  cell viability: 91.5%
HepG2 [1]; 100 nM
  cell viability: 87.9%
HepG2 [1]; 1000 nM
  cell viability: 90%
HepG2 [1]; 10000 nM
  cell viability: 97.4%
Vero E6 [2]; 1 nM
  cell viability: 92.5%
Vero E6 [2]; 10 nM
  cell viability: 102%
Vero E6 [2]; 100 nM
  cell viability: 90.5%
Vero E6 [2]; 1000 nM
  cell viability: 91.7%
Vero E6 [2]; 10000 nM
  cell viability: 95%
Calu-3 [3]; 1 nM
  cell viability: 102%
Calu-3 [3]; 10 nM
  cell viability: 97.7%
Calu-3 [3]; 100 nM
  cell viability: 102%
Calu-3 [3]; 1000 nM
  cell viability: 104%
Calu-3 [3]; 10000 nM
  cell viability: 88.4%
Caco-2 [4]; 1 nM
  cell viability: 89.5%
Caco-2 [4]; 10 nM
  cell viability: 96.7%
Caco-2 [4]; 100 nM
  cell viability: 85.8%
Caco-2 [4]; 1000 nM
  cell viability: 90.4%
Caco-2 [4]; 10000 nM
  cell viability: 92.4%
U2OS [5]; 1 nM
  cell viability: 98.6%
U2OS [5]; 10 nM
  cell viability: 99.3%
U2OS [5]; 100 nM
  cell viability: 95.7%
U2OS [5]; 1000 nM
  cell viability: 96.2%
U2OS [5]; 10000 nM
  cell viability: 96.3%
HepG2 [6]
  drug sensitivity score: 0
Vero E6 [7]
  drug sensitivity score: 0
Calu-3 [8]
  drug sensitivity score: 0
Caco-2 [9]
  drug sensitivity score: 0
U2OS [10]
  drug sensitivity score: 0
HepG2 [11]
  relative viability EC50: > 10 µM
Vero E6 [12]
  relative viability EC50: > 10 µM
Calu-3 [13]
  relative viability EC50: > 10 µM
Caco-2 [14]
  relative viability EC50: > 10 µM
U2OS [15]
  relative viability EC50: > 10 µM

## Oc1ccc(OCc2ccccc2)cc1 [monobenzone]
HepG2 [1]; 1 nM
  cell viability: 91.6%
HepG2 [1]; 10 nM
  cell viability: 94.9%
HepG2 [1]; 100 nM
  cell viability: 109%
HepG2 [1]; 1000 nM
  cell viability: 103%
HepG2 [1]; 10000 nM
  cell viability: 90.2%
Vero E6 [2]; 1 nM
  cell viability: 95.8%
Vero E6 [2]; 10 nM
  cell viability: 97.4%
Vero E6 [2]; 100 nM
  cell viability: 97.3%
Vero E6 [2]; 1000 nM
  cell viability: 100%
Vero E6 [2]; 10000 nM
  cell viability: 100%
Calu-3 [3]; 1 nM
  cell viability: 97.5%
Calu-3 [3]; 10 nM
  cell viability: 95.5%
Calu-3 [3]; 100 nM
  cell viability: 94.6%
Calu-3 [3]; 1000 nM
  cell viability: 98.9%
Calu-3 [3]; 10000 nM
  cell viability: 94.5%
Caco-2 [4]; 1 nM
  cell viability: 99.2%
Caco-2 [4]; 10 nM
  cell viability: 92.6%
Caco-2 [4]; 100 nM
  cell viability: 103%
Caco-2 [4]; 1000 nM
  cell viability: 107%
Caco-2 [4]; 10000 nM
  cell viability: 88.3%
U2OS [5]; 1 nM
  cell viability: 107%
U2OS [5]; 10 nM
  cell viability: 96.9%
U2OS [5]; 100 nM
  cell viability: 94.9%
U2OS [5]; 1000 nM
  cell viability: 102%
U2OS [5]; 10000 nM
  cell viability: 110%
HepG2 [6]
  drug sensitivity score: 0
Vero E6 [7]
  drug sensitivity score: 0
Calu-3 [8]
  drug sensitivity score: 0
Caco-2 [9]
  drug sensitivity score: 0
U2OS [10]
  drug sensitivity score: 0
HepG2 [11]
  relative viability EC50: > 10 µM
Vero E6 [12]
  relative viability EC50: > 10 µM
Calu-3 [13]
  relative viability EC50: > 10 µM
Caco-2 [14]
  relative viability EC50: > 10 µM
U2OS [15]
  relative viability EC50: > 10 µM

## CN(C(=O)/C=C/c1ccoc1)[C@@H]1CC[C@@]2(O)[C@H]3Cc4ccc(O)c5c4[C@@]2(CCN3CC2CC2)[C@H]1O5 [nalfurafine]
HepG2 [1]; 1 nM
  cell viability: 102%
HepG2 [1]; 10 nM
  cell viability: 104%
HepG2 [1]; 100 nM
  cell viability: 95.5%
HepG2 [1]; 1000 nM
  cell viability: 97.7%
HepG2 [1]; 10000 nM
  cell viability: 102%
Vero E6 [2]; 1 nM
  cell viability: 90.6%
Vero E6 [2]; 10 nM
  cell viability: 101%
Vero E6 [2]; 100 nM
  cell viability: 89.5%
Vero E6 [2]; 1000 nM
  cell viability: 95.6%
Vero E6 [2]; 10000 nM
  cell viability: 102%
Calu-3 [3]; 1 nM
  cell viability: 92.2%
Calu-3 [3]; 10 nM
  cell viability: 103%
Calu-3 [3]; 100 nM
  cell viability: 106%
Calu-3 [3]; 1000 nM
  cell viability: 96.8%
Calu-3 [3]; 10000 nM
  cell viability: 91.3%
Caco-2 [4]; 1 nM
  cell viability: 104%
Caco-2 [4]; 10 nM
  cell viability: 92.9%
Caco-2 [4]; 100 nM
  cell viability: 99%
Caco-2 [4]; 1000 nM
  cell viability: 107%
Caco-2 [4]; 10000 nM
  cell viability: 104%
U2OS [5]; 1 nM
  cell viability: 100%
U2OS [5]; 10 nM
  cell viability: 99.8%
U2OS [5]; 100 nM
  cell viability: 100%
U2OS [5]; 1000 nM
  cell viability: 103%
U2OS [5]; 10000 nM
  cell viability: 105%
HepG2 [6]
  drug sensitivity score: 0
Vero E6 [7]
  drug sensitivity score: 0
Calu-3 [8]
  drug sensitivity score: 0
Caco-2 [9]
  drug sensitivity score: 0
U2OS [10]
  drug sensitivity score: 0
HepG2 [11]
  relative viability EC50: > 10 µM
Vero E6 [12]
  relative viability EC50: > 10 µM
Calu-3 [13]
  relative viability EC50: > 10 µM
Caco-2 [14]
  relative viability EC50: > 10 µM
U2OS [15]
  relative viability EC50: > 10 µM

## Cn1cc(C(=O)c2cccc3ccccc23)cc1C(=O)O [napirimus]
HepG2 [1]; 1 nM
  cell viability: 101%
HepG2 [1]; 10 nM
  cell viability: 97.9%
HepG2 [1]; 100 nM
  cell viability: 103%
HepG2 [1]; 1000 nM
  cell viability: 99.8%
HepG2 [1]; 10000 nM
  cell viability: 94.8%
Vero E6 [2]; 1 nM
  cell viability: 92.9%
Vero E6 [2]; 10 nM
  cell viability: 99.7%
Vero E6 [2]; 100 nM
  cell viability: 95.2%
Vero E6 [2]; 1000 nM
  cell viability: 105%
Vero E6 [2]; 10000 nM
  cell viability: 99%
Calu-3 [3]; 1 nM
  cell viability: 98.7%
Calu-3 [3]; 10 nM
  cell viability: 104%
Calu-3 [3]; 100 nM
  cell viability: 100%
Calu-3 [3]; 1000 nM
  cell viability: 101%
Calu-3 [3]; 10000 nM
  cell viability: 104%
Caco-2 [4]; 1 nM
  cell viability: 99.3%
Caco-2 [4]; 10 nM
  cell viability: 92%
Caco-2 [4]; 100 nM
  cell viability: 95.4%
Caco-2 [4]; 1000 nM
  cell viability: 96.5%
Caco-2 [4]; 10000 nM
  cell viability: 85.6%
U2OS [5]; 1 nM
  cell viability: 104%
U2OS [5]; 10 nM
  cell viability: 100%
U2OS [5]; 100 nM
  cell viability: 101%
U2OS [5]; 1000 nM
  cell viability: 98.3%
U2OS [5]; 10000 nM
  cell viability: 98.4%
HepG2 [6]
  drug sensitivity score: 0
Vero E6 [7]
  drug sensitivity score: 0
Calu-3 [8]
  drug sensitivity score: 0
Caco-2 [9]
  drug sensitivity score: 0
U2OS [10]
  drug sensitivity score: 0
HepG2 [11]
  relative viability EC50: > 10 µM
Vero E6 [12]
  relative viability EC50: > 10 µM
Calu-3 [13]
  relative viability EC50: > 10 µM
Caco-2 [14]
  relative viability EC50: > 10 µM
U2OS [15]
  relative viability EC50: > 10 µM
